What was measured:
Type in all cases: in vivo
[1] = system: Amaranthus retroflexus (AMARE); assay: Pre-emergence herbicidal action against AMARE; settings: visual scoring after about 3 weeks vs untreated controls
Procedure, shortened: (§1)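 Read-out is visual percent damage relative to untreated pots, with 100% meaning dead plants and 0% meaning no difference, assessed roughly three weeks after treatment. Compounds were applied pre-emergence to the covering soil at up to 320 g/ha.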

[2] = system: Echinochloa crus-galli (ECHCG); assay: Pre-emergence herbicidal action against ECHCG; settings: dosage 320 g/ha
Procedure, shortened: as §1

Lolium rigidum (LOLRI) [3] = assay: Pre-emergence herbicidal action against LOLRI; settings: dosage 320 g/ha
Procedure, shortened: as §1

[4] = system: Matricaria inodora (MATIN); assay: Pre-emergence herbicidal action against MATIN
Procedure, shortened: as §1

[5] = system: Polygonum convolvulus (POLCO); assay: Pre-emergence herbicidal action against POLCO; settings: dosage 320 g/ha
Procedure, shortened: as §1

Setaria viridis (SETVI) [6] = assay: Pre-emergence herbicidal action against SETVI; settings: dosage 320 g/ha
Procedure, shortened: as §1

Viola tricolor (VIOTR) [7] = assay: Pre-emergence herbicidal action against VIOTR; settings: 320 g/ha, Viola tricolor
Procedure, shortened: as §1

Zea mays (ZEAMX) [8] = settings: pre-emergence, 80 g/ha, crop plant compatibility, in comparison to untreated controls
Text: Seeds of monocotyledonous and dicotyledonous weed plants and crop plants are placed in plastic or organic planting pots and covered with soil. The compounds of the invention, formulated in the form of wettable powders (WP) or as emulsion concentrates (EC), are then applied to the surface of the covering soil as aqueous suspension or emulsion with addition of 0.5% additive at a water application rate equivalent to 600 l/ha. After the treatment, the pots are placed in a greenhouse and kept under good growth conditions for the trial plants. After about 3 weeks, the effect of the preparations is scored visually in comparison with untreated controls as percentages. For example, 100% activity=the plants have died, 0% activity=like control plants.
The observed effects on selected crop plants are reported here in comparison to the untreated controls (values in %). The appendices “a” “b” and “c” give differentiation by dosage used with otherwise the same crop plants tested.

[9] = system: Amaranthus retroflexus (AMARE); assay: Post-emergence herbicidal action against AMARE
Procedure, shortened: (§2)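 Rates were 320 g/ha or below, applied as aqueous WP/EC spray with 0.5% additive (600 l/ha) onto one-leaf-stage plants. About 3 weeks later in the greenhouse, damage was scored visually against untreated plants on a 0–100% scale, where 100% means plants died.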

[10] = system: Echinochloa crus-galli (ECHCG); assay: Post-emergence herbicidal action against ECHCG
Procedure, shortened: as §2

[11] = system: Matricaria inodora (MATIN); assay: Post-emergence herbicidal action against MATIN; settings: dosage 320 g/ha
Procedure, shortened: as §2

[12] = system: Pharbitis purpurea (PHBPU); assay: Post-emergence herbicidal action against PHBPU; settings: dosage 320 g/ha
Procedure, shortened: as §2

[13] = system: Polygonum convolvulus (POLCO); assay: Post-emergence herbicidal action against POLCO; settings: dosage 320 g/ha
Procedure, shortened: as §2

Setaria viridis (SETVI) [14] = assay: Post-emergence herbicidal action against SETVI
Procedure, shortened: as §2

Viola tricolor (VIOTR) [15] = assay: Post-emergence herbicidal action against VIOTR
Procedure, shortened: as §2

Oryza sativa (ORYSA) = settings: crop plant compatibility, 80 g/ha, effect in comparison to untreated controls
Procedure, shortened: (§3)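 Greenhouse crops in sandy loam sprayed post-emergence at the one-leaf stage, 2–3 weeks after sowing, with WP or EC formulations in water plus 0.5% additive at 600 l/ha. Damage rated visually about 3 weeks later versus untreated controls (0% = like control, 100% = dead); suffixes a–c denote different doses.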

[16] = system: Alopecurus myosuroides (ALOMY); assay: Pre-emergence herbicidal action against ALOMY; settings: 320 g/ha; scored visually after about 3 weeks; 100% = plants have died
Procedure, shortened: as §1

[17] = system: Alopecurus myosuroides (ALOMY); assay: Post-emergence herbicidal action against ALOMY; settings: 320 g/ha, visual rating about 3 weeks after treatment vs untreated controls (100% = plants have died, 0% = like control plants)
Procedure, shortened: as §2

Avena fatua (AVEFA) = assay: Post-emergence herbicidal action against AVEFA; settings: 320 g/ha, visual rating about 3 weeks after treatment
Procedure, shortened: as §2

Lolium rigidum (LOLRI) [18] = assay: Post-emergence herbicidal action against LOLRI; settings: dosage 320 g/ha
Procedure, shortened: as §2

[19] = system: Verconica persica (VERPE); assay: Post-emergence herbicidal action against VERPE; settings: 320 g/ha, VERPE
Procedure, shortened: as §2

Zea mays (ZEAMX) [20] = settings: crop plant compatibility, 80 g/ha, effect vs untreated controls
Procedure, shortened: as §3

[21] = 80 g/ha, visual rating about 3 weeks after treatment vs untreated controls (100% = plants have died, 0% = like control plants)
[22] = 320 g/ha, visual rating about 3 weeks after treatment

Compound	Pre-emergence action against AMARE in % ([1]; 320 g/ha)	Pre-emergence action against ECHCG in % [2]	Pre-emergence action against LOLRI in % (Lolium rigidum (LOLRI) [3])	Pre-emergence action against MATIN in % ([4]; dosage 320 g/ha)	Pre-emergence action against SETVI in % (Setaria viridis (SETVI) [6])	Pre-emergence action against ZEAMX in % (Zea mays (ZEAMX) [8])	Post-emergence action against AMARE in % [9, 21]	Post-emergence action against AMARE in % [9, 22]	Post-emergence action against ECHCG in % ([10]; dosage 80 g/ha)	Post-emergence action against ECHCG in % ([10]; dosage 320 g/ha)	Post-emergence action against MATIN in % [11]	Post-emergence action against PHBPU in % [12]	Post-emergence action against POLCO in % [13]	Post-emergence action against SETVI in % (Setaria viridis (SETVI) [14]; dosage 320 g/ha)	further results
O=C(O)CSc1nn(-c2ccccn2)c(-c2cncc(F)c2)c1I [Example I-229]	80%	90%	80%	80%	90%	0%	80%	80%	80%	80%	80%	80%	80%	80%	Pre-emergence action against POLCO in % [5]: 90%; Pre-emergence action against VIOTR in % (Viola tricolor (VIOTR) [7]): 90%; Post-emergence action against SETVI in % (Setaria viridis (SETVI) [14]; dosage 80 g/ha): 80%; Post-emergence action against VIOTR in % (Viola tricolor (VIOTR) [15]; 80 g/ha): 80%; Post-emergence action against VIOTR in % (Viola tricolor (VIOTR) [15]; 320 g/ha): 80%; Post-emergence action against ORYSA in % (Oryza sativa (ORYSA)): 0%
CCOC(=O)COc1nn(-c2ccccn2)c(-c2ccc(F)nc2)c1F [Example I-305]	90%	90%	90%	90%	90%	0%	80%	90%	90%	90%	80%	90%	80%	90%	Pre-emergence action against ALOMY [16]: 90%; Pre-emergence action against AMARE in % ([1]; 80 g/ha): 80%; Pre-emergence action against MATIN in % ([4]; dosage 80 g/ha): 80%; Post-emergence action against ALOMY in % [17]: 100%; Post-emergence action against AVEFA in % (Avena fatua (AVEFA)): 80%; Post-emergence action against LOLRI in % (Lolium rigidum (LOLRI) [18]): 90%; Post-emergence action against VERPE in % [19]: 90%; Post-emergence action against ZEAMX in % (Zea mays (ZEAMX) [20]): 0%
